The subject of one experiment is PDE4. Description: PDE4 inhibition, scintillation proximity assay (SPA).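 On PDE4 Inhibitory Activity (concentration for the inhibition rate of 50%): A below 100 nM B 100 to below 1000 nM C 1000 nM or more.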 The following applies: scintillation proximity assay (SPA); evaluated as classes A, B, C; read-out: PDE4 Inhibitory Activity (concentration for the inhibition rate of 50%). The format is biochemical. In outline:
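Compound pre-diluted 1:10 in 50 mM Tris-HCl pH 7.4, 8.3 mM MgCl2, 1.7 mM EGTA, 3 mg/mL BSA, then incubated with PDE4 and [2,8-3H]-cAMP for 120 min at room temperature. Product captured on ZnSO4-containing YSi-SPA beads for 15 min; radioactivity counted against no-enzyme blank and DMSO control.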
Regarding `CC(C)(O)C(F)(F)Oc1ccc(-c2ccccn2)c2oc(N3CC4CC(C3)N4)nc12` [Example 289, 1-((2-(3,6-Diazabicyclo[3.1.1]heptan-3-yl)-7-(pyridin-2-yl)benzo[d]oxazol-4-yl)oxy)-1,1-difluoro-2-methylpropan-2-ol], the IC50 was below 100 nM. The same measure, in the same setting: the same measure for `CCOC(=O)c1cc(-c2nccs2)c2oc(N3CC4COCC(C3)N4)nc2c1` [Example 88, Ethyl 2-(3-oxa-7,9-diazabicyclo[3.3.1]nonan-7-yl)-7-(thiazol-2-yl)benzo[d]oxazole-5-carboxylate]: 100 to 1000 nM; for `CC(O)(c1cc(-c2nccs2)c2oc(N3CC4CC(C3)N4)nc2c1)C(F)(F)F` (centres unmarked) [Example 160, 2-(2-(3,6-Diazabicyclo[3.1.1]heptan-3-yl)-7-(thiazol-2-yl)benzo[d]oxazol-5-yl)-1,1,1-trifluoropropan-2-ol]: below 100 nM.

For the molecule `N#CCOC(c1ccc(-c2nccs2)c2oc(N3CC4CCC(C3)N4)nc12)C(F)(F)F` (centres unmarked) [Example 228, 2-(1-(2-(3,8-Diazabicyclo[3.2.1]octan-3-yl)-7-(thiazol-2-yl)benzo[d]oxazol-4-yl)-2,2,2-trifluoroethoxy)acetonitrile], the IC50 was below 100 nM. `FC(F)(F)c1c(Cl)cc(-c2nccs2)c2oc(N3CC4CCC(C3)N4)nc12` [Example 20, 2-(3,8-Diazabicyclo[3.2.1]octan-3-yl)-5-chloro-7-(thiazol-2-yl)-4-(trifluoromethyl)benzo[d]oxazole]: the IC50 was below 100 nM. On the same count and under the same terms, the same measure for `CC(O)(c1ccc(-c2nccs2)c2oc(N3CC4CC(C3)N4)nc12)C(F)F` (centres unmarked) [Example 297, 2-(2-(3,6-Diazabicyclo[3.1.1]heptan-3-yl)-7-(thiazol-2-yl)benzo[d]oxazol-4-yl)-1,1-difluoropropan-2-ol]: below 100 nM; for `CCOC(c1ccc(-c2nccs2)c2oc(N3CC4CC(C3)N4)nc12)C(F)(F)F` (centres unmarked) [Example 224, 2-(3,6-Diazabicyclo[3.1.1]heptan-3-yl)-4-(1-ethoxy-2,2,2-trifluoroethyl)-7-(thiazol-2-yl)benzo[d]oxazole]: below 100 nM. Still for that read-out and setting: to `COC(=O)c1ccc(-c2nccs2)c2oc(N3CC4CCC(C3)N4)nc12` [Example 237, Methyl 2-(3,8-diazabicyclo[3.2.1]octan-3-yl)-7-(thiazol-2-yl) benzo[d]oxazole-4-carboxylate] belongs below 100 nM; to `CC(=O)c1cc(-c2nccs2)c2oc(N3CC4CC(C3)N4)nc2c1OC(F)(F)F` [Example 212, 1-(2-(3,6-Diazabicyclo[3.1.1]heptan-3-yl)-7-(thiazol-2-yl)-4-(trifluoromethoxy)benzo[d]oxazol-5-yl)ethan-1-one], below 100 nM.

Staying with this experiment, now noted: scintillation proximity assay; class symbols; read-out: PDE4 Inhibitory Activity.
As for `ON1C2CC1CN(c1nc3c(OC(F)(F)F)ccc(-c4nccs4)c3o1)C2` [Example 380, 3-(7-(thiazol-2-yl)-4-(trifluoro-methoxy)benzo[d]oxazol-2-yl)-3,6-diazabicyclo [3.1.1]heptan-6-ol], the IC50 was below 100 nM. On to `O=S(=O)(c1ccc(-c2nccs2)c2oc(N3CC4CC(C3)N4)nc12)N1CCCC1` [Example 390, 2-(3,6-diazabicyclo[3.1.1]heptan-3-yl)-4-(pyrrolidin-1-yl-sulfonyl)-7-(thiazol-2-yl)benzo [d]oxazole], for which the IC50 was below 100 nM.

(Values after patent US10669283B2, “Compound and pharmacologically acceptable salt thereof” (MEIJI SEIKA PHARMA CO., LTD., priority 2016, dated 2020).)
